Where two headings read alike, the source gives them in different places.
Assays:
[1] = test system: Toledo-cis cells; parameters: method as in doi:10.1016/j.ica.2016.11.021; settings: MTT, 72 h, reposted from previous paper; cited from earlier work
[2] = test system: human lymphocytes; parameters: method as in doi:10.1016/j.ica.2016.11.021; settings: MTT, 72 h, reposted from previous paper; cited from earlier work
[3] = test system: human lymphocytes; experiment: MTT cellular viability assay, normal lymphocytes; format: cell-based; settings: for times less toxic for normal lymphocytes in comparison to cisplatin: relative to cisplatin; for IC50: Lymphocytes, MTT, 72 h
Method: The buffy coat fraction of peripheral blood from healthy donors was purchased from the Regional Blood Bank in Lodz, Poland. Mononuclear blood cells were isolated using Lympho-Sep tubes (Biological Industries, Israel). Lymphocytes were cultured in RPMI-1640 medium (Biological Industries, Israel) supplemented with 10% heat-inactivated fetal bovine serum, phytohemaglutinin M solution (PHA-M, Biological Industries), 5 mM Hepes, and 50 µg/mL gentamycin. The cancer cells were seeded in 24-well plates, with 1 mL of cell suspension per well, in the following densities: A2780—10^4 cells/mL; […] Lymphocytes were seeded in 48-well plates, 0.5 mL of cell suspension per well, at −2 × 10^5 cells/mL. The cultures were left overnight to adapt. The next day, the tested compounds were added, pre-dissolved in DMF, and then in a complete culture medium, at concentrations two-fold higher than the final ones. The resulting solutions were added to cell cultures to obtain the demanded concentration. Stock solutions of the compounds were freshly made before every experiment. The final concentration of the solvents in culture medium was 0.2% v/v. […] Then the culture medium was removed, and the purple formazan crystals were dissolved in DMSO. The absorbance was measured at 540 nm on a Spectrostar Nano spectrophotometer with a microplate reader (BMG Labtech, Ortenberg, Germany). The experiments were performed at least in triplicate. The results were transformed to relative values, as the percentage of the solvent control (assumed as 100%) to subtract any toxic effect of DMF.

[4] = test system: A2780cis cells; experiment: MTT cellular viability assay, A2780cis; format: cell-based, human; settings: for RF (IC50 A2780cis/IC50 A2780): Resistance factor defined as IC50(resistant)/IC50(sensitive); for IC50: A2780cis, MTT, 72 h
Method: (§1) Cell lines A2780 (human ovarian carcinoma, ECACC cat. No. 93112519), A2780cis (subline resistant to cisplatin, ECACC cat. […] All cell lines were maintained in a humidified incubator, at 37 °C and 5% CO2. The cell lines A2780 and A2780cis were grown as monolayers, and cultures were detached with trypsin and renewed every 3–4 days. Toledo and Toledo-cis were grown in suspension; the cultures were renewed every 3–4 days. The Toledo cell line was kindly provided by Prof. […] The cancer cells were seeded in 24-well plates, with 1 mL of cell suspension per well, in the following densities: A2780—10^4 cells/mL; […] Lymphocytes were seeded in 48-well plates, 0.5 mL of cell suspension per well, at −2 × 10^5 cells/mL. The cultures were left overnight to adapt. The next day, the tested compounds were added, pre-dissolved in DMF, and then in a complete culture medium, at concentrations two-fold higher than the final ones. The resulting solutions were added to cell cultures to obtain the demanded concentration. Stock solutions of the compounds were freshly made before every experiment. The final concentration of the solvents in culture medium was 0.2% v/v. […] Then the culture medium was removed, and the purple formazan crystals were dissolved in DMSO. The absorbance was measured at 540 nm on a Spectrostar Nano spectrophotometer with a microplate reader (BMG Labtech, Ortenberg, Germany). The experiments were performed at least in triplicate. The results were transformed to relative values, as the percentage of the solvent control (assumed as 100%) to subtract any toxic effect of DMF.

[5] = test system: A2780 cells; parameters: method as in doi:10.1016/j.ica.2016.11.021; settings: cited from earlier work
[6] = test system: Toledo cells; parameters: method as in doi:10.1016/j.ica.2016.11.021; settings: cited from earlier work
[7] = test system: Toledo-cis cells; experiment: MTT cellular viability assay, Toledo-cis; format: cell-based, human; settings: for RF (IC50 Toledo-cis/IC50 Toledo): Resistance factor defined as IC50(resistant)/IC50(sensitive); for IC50: Toledo-cis, MTT, 72 h
Method: as §1

[8] = test system: A2780cis cells; parameters: method as in doi:10.1016/j.ica.2016.11.021; settings: MTT, 72 h, reposted from previous paper; cited from earlier work
[9] = test system: A2780 and A2780cis cells; experiment: Annexin V apoptosis assay (flow cytometry); format: cell-based, human; settings: 2 h and 4 h incubation, compared to untreated cells
Method: The apoptotic cells were identified by flow cytometry using the Annexin-V/FITC (BDBiosciences, San Diego, CA, USA) assay according to the manufacturer’s instructions. […] PI only stains the nuclei of damaged cells with permeable plasma membranes. Briefly, the cells were incubated with tested compounds for 2 and 4 h. After incubation, the cells were washed twice with cold PBS and then resuspended in 100 μL of binding buffer, containing 2 μL of FITC conjugated annexin-V and 10 μg mL^−1 of PI (Becton-Dickinson, San Jose, CA, USA). Then, the preparations were incubated at room temperature, protected from light, for 15 min. Fluorescence was measured immediately after staining by flow cytometry using FL1 (green, annexin-V) and FL3 (red, PI) standard fluorescent filters.

[10] = test system: A2780 and A2780cis cells; experiment: Mitochondrial potential loss measurement (MitoTracker Red, flow cytometry); format: cell-based, human; settings: 2 h and 4 h incubation
Method: The loss of mitochondrial transmembrane potential (ΔΨm) occurs early during apoptosis and is often considered as a marker of apoptosis activated by the mitochondrial pathway. MitoTracker Red (Invitrogen, Waltham, MA, USA) dye was used as a probe for ΔΨm, which accumulates in the active mitochondria of living cells: 50 nM, 20 min incubation, at RT. The reduction of Δ Ψm was detected by flow cytometry as a decrease in red fluorescence of the dye in treated cells as compared to untreated cells.

[11] = test system: Toledo cells; experiment: MTT cellular viability assay, Toledo; format: cell-based, human; settings: 72 h
Method: (§2) Cell lines A2780 (human ovarian carcinoma, ECACC cat. No. 93112519), A2780cis (subline resistant to cisplatin, ECACC cat. No. 93112517), Toledo (human diffuse large cell lymphoma, ATCC CRL-2631TM), and Toledo-cis (cisplatin-resistant subline obtained from Toledo in our laboratory) were cultured in RPMI-1640 medium (Biological Industries, Kibbutz Beit-Haemek, Israel) supplemented with 10% heat-inactivated fetal bovine serum, 5 mM Hepes, and 50 µg/mL gentamycin. All cell lines were maintained in a humidified incubator, at 37 °C and 5% CO2. The cell lines A2780 and A2780cis were grown as monolayers, and cultures were detached with trypsin and renewed every 3–4 days. Toledo and Toledo-cis were grown in suspension; the cultures were renewed every 3–4 days. The Toledo cell line was kindly provided by Prof. Piotr Smolewski from the Department of Experimental Hematology, Medical University of Lodz, ul Ciołkowskiego 2, 93–510 Łódź, Poland, on the conditions of collaboration. […]
(§3) The cancer cells were seeded in 24-well plates, with 1 mL of cell suspension per well, in the following densities: A2780—10^4 cells/mL; A2780cis—1.5 × 10^4 cells/mL; and Toledo and Toledo-cis—5 × 10^4 cells/mL. […] The absorbance was measured at 540 nm on a Spectrostar Nano spectrophotometer with a microplate reader (BMG Labtech, Ortenberg, Germany). […]

[12] = test system: A2780 cells; experiment: MTT cellular viability assay, A2780; format: cell-based, human; settings: 72 h
Method: as §2, §3

[13] = test system: panel of cancer cells and human lymphocytes; experiment: MTT cellular viability assay, all tested cell lines; format: cell-based; settings: range over all tested cell lines, 72 h, read-out: IC50 values towards all tested cell lines
Method: as §2, §3

[14] = molecular target: T1, human topoisomerase I (Homo sapiens, UniProt P11387); experiment: Topoisomerase I drug screening (plasmid based), gel electrophoresis; format: biochemical; settings: scDNA + topo1; tested compounds 10-20 µM, camptothecin 100 µM
T1 construct: purchased TopoGen, Buena Vista, CO, USA
T1 sequence (P11387 1-765): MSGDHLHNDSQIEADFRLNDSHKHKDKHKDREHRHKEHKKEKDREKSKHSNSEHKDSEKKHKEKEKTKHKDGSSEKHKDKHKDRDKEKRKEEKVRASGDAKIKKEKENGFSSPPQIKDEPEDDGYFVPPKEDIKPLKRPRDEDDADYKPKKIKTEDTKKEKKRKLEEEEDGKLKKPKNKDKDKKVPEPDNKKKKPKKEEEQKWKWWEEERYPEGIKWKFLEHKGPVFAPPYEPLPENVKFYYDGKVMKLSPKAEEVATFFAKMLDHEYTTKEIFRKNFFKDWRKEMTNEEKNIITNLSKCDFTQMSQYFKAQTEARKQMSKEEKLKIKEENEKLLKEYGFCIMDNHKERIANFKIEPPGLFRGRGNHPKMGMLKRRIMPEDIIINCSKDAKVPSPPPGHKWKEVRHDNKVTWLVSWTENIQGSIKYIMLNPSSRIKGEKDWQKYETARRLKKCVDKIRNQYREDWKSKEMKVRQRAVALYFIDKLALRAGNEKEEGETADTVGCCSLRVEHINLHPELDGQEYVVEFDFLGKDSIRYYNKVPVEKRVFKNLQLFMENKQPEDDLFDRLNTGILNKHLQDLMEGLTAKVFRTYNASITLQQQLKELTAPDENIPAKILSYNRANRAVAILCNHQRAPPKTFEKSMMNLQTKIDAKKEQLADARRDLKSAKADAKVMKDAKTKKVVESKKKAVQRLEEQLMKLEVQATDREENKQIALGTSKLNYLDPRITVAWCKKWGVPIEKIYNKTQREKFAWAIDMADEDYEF
Method: The test procedure was carried out according to the manufacturer′s instructions (Topoisomerase I Drug Screening Kit(plasmid based) TopoGen/Topoisomerase II Drug Screening Kit (plasmid based) (TopoGen, Buena Vista, CO, USA). A reaction mixture with appropriate concentrations of water and buffer and 1–0.5 mL of DNA (plasmid) was prepared. Then, the tested compounds dissolved in DMSO were added. A solvent control test was also performed. Finally, an enzyme in the indicated amount was added to the mixture. The whole was incubated at 37 °C for 30 min. Then, the reaction was stopped by adding 2 μL of detergent-SDS (sodium dodecyl sulfate). Proteinase K solution (50 μg/mL) was then added and incubated at 37 °C for 15 min. After that time, a loading buffer (bromophenol blue and glycerol) was added to the samples and then applied to a 1% agarose gel. Electrophoresis was carried out in TAE (Tris Acetate-EDTA) buffer, which was obtained by mixing 40 mM Tris Acetate, 1 mM EDTA, and diluting with water. It was carried out for 4–5 h at 2 V/cm. For the Topo I assay, two types of gel were prepared: non-EB (Figure 8A) and EB gel (Figure 8B). Non-EB gels were stained with EB (0.5 ug/mL) for 15–30 min and then destained in water or buffer for 15 min prior to photodocumentation. […]

[15] = A2780, MTT, 72 h, reposted from previous paper
[16] = MTT, 72 h, reposted from previous paper

Structure (SMILES) | IC50 [1] | IC50 [2] | times less toxic for normal lymphocytes in comparison to cisplatin [3] | RF (IC50 A2780cis/IC50 A2780) [4] | IC50 [5, 15] | IC50 [6, 16] | RF (IC50 Toledo-cis/IC50 Toledo) [7] | IC50 [8] | percentage of Ann-V positive cells [9] | loss of mitochondrial membrane potential [10] | other results
COC1(c2ccccc2)Oc2ccccc2C(=O)C1=N.COC1(c2ccccc2)Oc2ccccc2C(=O)C1=N.[Cl][Ru][Cl] (stereo not drawn) [134 (2), cis-dichlorobis(3-imino-2-methoxyflavanone)ruthenium(II)] | 2.9 ± 0.2 µM | 3.4 ± 0.3 µM | 3 times | 1.8 | 2.5 ± 0.2 µM | 0.5 ± 0.1 µM | 5.8 | 4.6 ± 0.2 µM |  |  | 
CCOC1(c2ccccc2)Oc2ccccc2C(=O)C1=N.CCOC1(c2ccccc2)Oc2ccccc2C(=O)C1=N.[Cl][Ru][Cl] (stereo not drawn) [138 (3), cis-dichlorobis(3-imino-2-ethoxyflavanone)ruthenium(II)] | 2.8 ± 0.1 µM | 1.6 ± 0.1 µM | 7 times | 0.8 | 1.8 ± 0.1 µM | 0.6 ± 0.04 µM | 4.6 | 1.5 ± 0.4 µM |  |  | 
N.N.[Cl][Pt][Cl] [Cisplatin (1), cis-diamminedichloroplatinum (II), reference compound] | 8.3 ± 0.6 µM | 0.2 ± 0.1 µM |  | 84 | 0.2 ± 0.1 µM | 0.5 ± 0.07 µM | 17 | 16.8 ± 1.5 µM | did not cause similar changes | much lower influence | IC50 ([5]; A2780, text value): < 1 µM; IC50 [6]: < 1 µM; RF (IC50 Toledo-cis/IC50 Toledo) ([7]; listed as cisplatin): about 17
Nc1c(-c2ccccc2)oc2ccccc2c1=O [Ligand, 3-aminoflavone, reference compound] |  |  |  |  |  |  |  |  |  |  | IC50 ([3]; Homo sapiens, Lymphocyte): > 100 µM; IC50 ([4]; Homo sapiens): > 100 µM; IC50 ([11]; Homo sapiens): > 100 µM; IC50 ([12]; Homo sapiens): > 100 µM; IC50 ([7]; Homo sapiens): > 100 µM
Nc1c(-c2ccccc2)oc2ccccc2c1=O.Nc1c(-c2ccccc2)oc2ccccc2c1=O.[Cl][Pt][Cl] [TCAP(4), trans-dichlorobis(3-aminoflavone)platinum(II)] |  |  | 60 times | 2.3 |  |  | 1.4 |  | did not cause similar changes | much lower influence | IC50 [3]: 11.9 ± 0.7 µM; IC50 [4]: 15.1 ± 0.6 µM; IC50 [11]: 8.8 ± 0.8 µM; IC50 [12]: 6.5 ± 0.3 µM; IC50 [13]: 6.5 to 15.1 µM; IC50 [7]: 12.6 ± 1.2 µM
CC[C@@]1(O)C(=O)OCc2c1cc1n(c2=O)Cc2cc3ccccc3nc2-1 [camptothecin] |  |  |  |  |  |  |  |  |  |  | inhibition of topoisomerase I / DNA band pattern [14]: presence of open circular DNA

— publication PMC8306828 (International Journal of Molecular Sciences, 2021)
